From paper PMC4230996 (Journal of Medicinal Chemistry, 2014)
pEC50, pIC50: −log10 of the molar value.

Assays:
mGlu4 [1] = conditions: read-out: hEC50; human mGlu4 PAM potency; cited from earlier work
mGlu4 [2] = biological target: mGlu4 (Rattus norvegicus, UniProt P31423); assay: PET imaging of [^18F]3 in rats, baseline and blocking studies; type: in vivo, rat (male Sprague–Dawley); conditions: blocking agent 10 mg/kg injected 5 min before [^18F]3; uptake as area under TAC
mGlu1a = assay: selectivity functional assay, IPs accumulation in CHO cells; type: cell-based; conditions: single concentration 10 μM
mGlu5a = assay: as above; type: cell-based; conditions: single concentration 10 μM
mGlu8 = mGlu8 (Homo sapiens, UniProt O00222); assay: selectivity test, split luciferase biosensor cAMP assay in transfected CHO cells; type: cell-based; conditions: single concentration 10 μM
Sequence of mGlu8 (O00222 34-908): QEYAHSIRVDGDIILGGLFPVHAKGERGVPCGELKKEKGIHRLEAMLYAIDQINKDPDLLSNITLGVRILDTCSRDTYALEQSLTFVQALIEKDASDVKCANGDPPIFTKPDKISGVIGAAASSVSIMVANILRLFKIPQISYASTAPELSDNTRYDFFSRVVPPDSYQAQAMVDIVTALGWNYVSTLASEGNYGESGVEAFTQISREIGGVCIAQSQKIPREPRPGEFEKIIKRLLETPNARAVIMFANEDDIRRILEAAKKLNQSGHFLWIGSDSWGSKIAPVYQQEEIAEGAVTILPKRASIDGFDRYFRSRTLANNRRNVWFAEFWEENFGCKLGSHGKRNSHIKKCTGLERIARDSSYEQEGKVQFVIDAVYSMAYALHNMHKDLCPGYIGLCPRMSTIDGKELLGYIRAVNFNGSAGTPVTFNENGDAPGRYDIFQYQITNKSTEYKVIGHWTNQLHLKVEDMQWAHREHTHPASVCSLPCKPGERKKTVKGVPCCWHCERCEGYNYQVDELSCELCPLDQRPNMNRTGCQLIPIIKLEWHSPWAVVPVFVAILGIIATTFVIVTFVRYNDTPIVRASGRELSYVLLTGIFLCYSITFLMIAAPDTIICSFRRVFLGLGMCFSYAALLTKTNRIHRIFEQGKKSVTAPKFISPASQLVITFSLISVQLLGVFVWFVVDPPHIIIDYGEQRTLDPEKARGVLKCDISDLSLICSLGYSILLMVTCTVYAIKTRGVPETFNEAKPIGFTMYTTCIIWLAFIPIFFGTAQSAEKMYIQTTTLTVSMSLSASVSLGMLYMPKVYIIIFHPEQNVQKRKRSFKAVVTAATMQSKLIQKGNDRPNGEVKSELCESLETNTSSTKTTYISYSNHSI

[3] = stability of 3 in neutral and acidic media by LC–MS; type: physicochemical
human mGlu4 = conditions: read-out: IC50 (binding affinity to mGlu4); human mGlu4, Merck's patent; cited from earlier work

Sequence of mGlu4 (Rattus norvegicus, UniProt P31423) (P31423 33-912): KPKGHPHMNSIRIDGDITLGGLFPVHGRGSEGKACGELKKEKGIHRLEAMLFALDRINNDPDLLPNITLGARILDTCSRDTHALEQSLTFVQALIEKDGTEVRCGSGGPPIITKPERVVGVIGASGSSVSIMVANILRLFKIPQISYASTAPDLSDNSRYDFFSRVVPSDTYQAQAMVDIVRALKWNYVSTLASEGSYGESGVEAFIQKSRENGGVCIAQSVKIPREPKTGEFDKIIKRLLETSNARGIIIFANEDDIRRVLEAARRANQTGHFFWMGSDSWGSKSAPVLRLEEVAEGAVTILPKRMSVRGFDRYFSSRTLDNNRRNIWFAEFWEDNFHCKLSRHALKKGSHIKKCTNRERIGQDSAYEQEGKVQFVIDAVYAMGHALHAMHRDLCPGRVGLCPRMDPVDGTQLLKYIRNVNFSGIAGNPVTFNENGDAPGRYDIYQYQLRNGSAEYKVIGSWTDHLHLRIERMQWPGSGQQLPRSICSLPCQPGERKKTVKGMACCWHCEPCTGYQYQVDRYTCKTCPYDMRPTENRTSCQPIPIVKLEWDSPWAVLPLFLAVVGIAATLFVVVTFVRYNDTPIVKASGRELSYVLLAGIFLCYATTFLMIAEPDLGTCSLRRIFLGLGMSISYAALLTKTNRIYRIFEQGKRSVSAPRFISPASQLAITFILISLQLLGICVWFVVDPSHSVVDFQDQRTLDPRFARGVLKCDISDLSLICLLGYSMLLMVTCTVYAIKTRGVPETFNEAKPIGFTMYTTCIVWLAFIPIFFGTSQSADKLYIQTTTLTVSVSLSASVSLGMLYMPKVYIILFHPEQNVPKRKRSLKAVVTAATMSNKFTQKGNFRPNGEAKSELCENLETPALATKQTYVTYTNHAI

Q: For `O=C(Nc1cccc(OC(F)F)c1)c1ccccn1` [Compound 2, N-(3-(difluoromethoxy)phenyl)-2-picolinamide], which “reduced uptake of [^18F]3 in rat brain regions (blocking effect)” value (mGlu4 [2]) is on record?
A: 10–20%

Q: What does the source list for `O=C(Nc1ccc(N2C(=O)c3cccc(F)c3C2=O)c(Cl)c1)c1ccccn1` [Compound 3, N-(3-Chloro-4-(4-fluoro-1,3-dioxoisoindolin-2-yl)phenyl)-2-picolinamide]?
A: agonist or antagonist activity at mGlu1 (mGlu1a): little activity; agonist or antagonist activity at mGlu5 (mGlu5a): little activity; agonist or antagonist activity at mGlu8 (mGlu8): little activity; stability in neutral media ([3]; 0.1 M ammonium formate water–acetonitrile solution): two side products were detected; stability in acidic media ([3]; acidic media): minimal hydrolysis products

Q: With `Cc1cccc2c1C(=O)N(c1ccc(NC(=O)c3ccccn3)cc1Br)C2=O` [Compound 5] as the molecule, how does the pEC50 (mGlu4 [1]) read?
A: 7.00

Q: And the pIC50 (human mGlu4)?
A: 7.92
